Measured values from patent US10912712B2, “Treatment of bleeding by non-invasive stimulation” (The Feinstein Institutes for Medical Research, priority 2004, dated 2021).
Entries after “also recorded” stand apart in the source; their conditions may differ.

Experiments:
Male Balb/c Mice [1] = assay: Effect of alpha-7 antagonist MLA given before nicotine on bleed time (Example 13); assay type: in vivo
Method: Male Balb/c mice (around 25 g) were divided into three groups: A, B and C. Groups A and C were injected with the alpha-7 antagonist methyllycaconitine, (MLA; 4 mg/kg, IP, in 200 µL PBS), group B was injected with PBS (vehicle control, 125 µ1). 15 minutes later, Group A was injected with PBS (vehicle control, 125 µl) and groups B and C were injected with nicotine (0.3 mg/kg in 125 µL PBS). 30 minutes later, mice were anesthetized (ketamine [100 mg/kg, IP] and xylazine [10 mg/kg, IP]). After immersing tails in 37° C. saline for 5 minutes to normalize vasodilatory state, 2 mm of tail was amputated with a scalpel, and returned to the saline bath (modified from Nagashima et al., Journal of Clinical Investigation (109) 101-110, (2002); Snyder et al., Nature Medicine (5), 64-70, (1999).
Once bleeding stopped, animals were euthanized by CO2 asphyxiation. Data were recorded in seconds, and are presented as mean+/− SE. Student's t-test was used for statistical analysis.

Male Balb/c Mice [2] = assay: Bleed time after tail amputation in mice, GTS-21 (Example 10); assay type: in vivo; details: GTS-21 4 mg/kg IP vs PBS, 1 hour before, anesthetized, 2 mm of tail amputated
Method: Male Balb/c mice (around 25 g) were injected (intraperitoneally (IP)) with cholinergic agonist GTS-21 (4 mg/kg in 125 µL PBS) or PBS (vehicle control, 125 µL). 1 hour later, mice were anesthetized with ketamine/xylazine (100 mg/kg/10 mg/kg, intraperitoneally).

Question: For `CCN1C[C@]2(COC(=O)c3ccccc3N3C(=O)C[C@H](C)C3=O)CC[C@H](OC)[C@@]34[C@@H]5C[C@H]6[C@H](OC)[C@@H]5[C@](O)(C[C@@H]6OC)[C@@](O)([C@@H](OC)[C@H]23)[C@@H]14` [MLA, methyllycaconitine], which “effect on nicotine induced reduction of bleed time” value (Male Balb/c Mice [1]; MLA 4 mg/kg IP 15 minutes before nicotine 0.3 mg/kg) is on record?
Answer: inhibited nicotine induced reduction of bleed time

Question: With `COc1ccc(/C=C2\CCCN=C2c2cccnc2)c(OC)c1` [GTS-21] as the molecule, how does the total bleeding time (Male Balb/c Mice [2]) read?
Answer: significantly reduced the bleed time; also recorded: decrease in bleed time

Question: With `CN1CCCC1c1cccnc1` (stereo not drawn) [nicotine] as the molecule, how does the total bleeding time (Male Balb/c Mice [1]; nicotine 0.3 mg/kg after PBS pretreatment, 30 minutes later anesthetized, 2 mm of tail amputated) read?
Answer: reduction in bleed time
